Measurements from patent publication EP4778922A1, “BICYCLIC COMPOUND, AND PREPARATION METHOD THEREFOR AND PHARMACEUTICAL USE THEREOF” (Shanghai Jeyou Pharmaceutical Co., Ltd., priority 2023, dated 2025).
Where two headings read alike, the source gives them in different places.

What was measured:
[1] = Mouse pharmacokinetic test; assay type: in vivo, ICR mice; details: plasma; for Tmax: read-out: Tmax
Experimental: Formulation preparation: The dosing solutions were prepared on the day of administration.
Six healthy male naive ICR mice weighing 25-30 g were selected and divided into two groups (intravenous and oral groups), with three mice in each group, and administered a single dose. […] Feeding was resumed 4 h after administration. Timing was initiated following intravenous and oral administration. […] The collected whole blood was briefly vortexed twice for mixing, placed on wet ice, and centrifuged at 4°C and 8000 rpm for 5 min within 1 h. The supernatant plasma was collected and stored at -80°C until processing and analysis. Table 3: Pharmacokinetics in mice

[2] = system: 22RV1 cells; test: Cell proliferation inhibition assay in 22RV1 cells (CellTiter-Glo, 7 days); assay type: cell-based, human; details: Homo sapiens
Experimental: • 1. The human prostate cancer cell lines 22RV1 and LNCaP were purchased from ATCC. […] The cell concentration was adjusted to an appropriate concentration (determined based on the results of cell density optimization experiments), and the cells were seeded into a 96-well plate. A 100 µL cell suspension was added, resulting in 3000 cells per well. […] On the second day, for 22Rv1 cells, test compounds at different concentrations were added, and the cells were incubated at 37°C in a 5% CO2 incubator for 7 days; for LNCaP cells, test compounds at different concentrations were added first, and after 1 hour of treatment, 0.2 nM DHT was added. The cells were then incubated at 37°C in a 5% CO2 incubator for 7 days. • 4. After the incubation period, a volume of CellTiter-Glo detection reagent equal to the volume of the culture medium was added to each well. The plate was shaken and mixed thoroughly for 5 minutes, then incubated at room temperature for 10 minutes. Readings were taken using a PerkinElmer EnVision microplate reader. • 5.
The IC50 curve was fitted and the IC50 value was calculated using the software GraphPad Prism 8 with the calculation formula XY-analysis/Nonlinear regression (curve fit)/Dose response-Inhibition/log (inhibitor) vs. response-Variable slope (four parameters).

Row | IC50 ([2]; 168 h) [nM] | Compound | AUC(0-inf) ([1]; po, 30 mg/kg, PO-30mpk) [µg·h/mL] | Cmax ([1]; po, 30 mg/kg, PO-30mpk) [ng/mL] | half-life ([1]; po, 30 mg/kg, PO-30mpk) [h] | Tmax ([1]; po, 30 mg/kg, PO-30mpk) [h] | IC50 ([2]; 22Rv1, 168 h) [nM] | further results
1 | – | CC(C)(c1ccc(-c2ccc(OCc3ccnc(N4CC(S(C)(=N)=O)C4)n3)cn2)cc1)c1cc(Cl)c(OCCCl)c(C#N)c1 (racemic) [Compound 242] | 607 | 78000 | 4.4 | 4 | 490 | –
2 | – | CC(C)(c1ccc(-c2ccc(OCc3ccnc(N=S4(=O)CCCC4)n3)cn2)cc1)c1cc(Cl)c(OCCCl)c(C#N)c1 [Compound 16] | 211 | 36100 | 1.46 | 1.67 | 940 | –
3 | – | CC(C)(c1ccc(-c2ccc(OCc3ccnc(P(C)(C)=O)n3)nc2)cc1)c1cc(Cl)c(OCCCl)c(C#N)c1 [Compound 17] | 420 | 35700 | 5.82 | 4.67 | 960 | C0 ([1]; 0.5 mg/kg, IV-0.5mpk): 982 ng/mL; clearance ([1]; 0.5 mg/kg, IV-0.5mpk): 1.1 mL/min/kg; bioavailability ([1]; 30 mg/kg, PO-30mpk vs IV-0.5mpk): 92.2%; AUC(0-inf) ([1]; iv, 0.5 mg/kg, IV-0.5mpk): 7.59 µg·h/mL; half-life ([1]; iv, 0.5 mg/kg, IV-0.5mpk): 5.6 h
4 | – | CC(C)(c1ccc(-c2ccc(Oc3ccnc(P(C)(C)=O)n3)cc2)cc1)c1cc(Cl)c(OCCCl)c(C#N)c1 [Compound 26] | 368 | 29500 | 7.81 | 3.33 | 1420 | –
5 | – | CC(C)(c1ccc(-c2ccc(OCc3ccnc(N=S(C)(C)=O)n3)cc2)cc1)c1cc(Cl)c(OCCCl)c(C#N)c1 [Compound 44] | 219 | 11700 | 9.35 | 4.67 | 940 | –
6 | – | CC(C)(c1ccc(-c2ccc(OCC3CN(c4ccnc(P(C)(C)=O)n4)C3)cc2)cc1)c1cc(Cl)c(OCCCl)c(C#N)c1 [Compound 70] | 187 | 14700 | 5.13 | 4 | 500 | –
7 | – | CC(C)(c1ccc(-c2ccc(OCc3ccnc(N4CC5(COC5)C4)n3)cn2)cc1)c1cc(Cl)c(OCCCl)c(C#N)c1 [Compound 82] | 171 | 24900 | 8.3 | 2.7 | 860 | –
8 | – | CC(C)(c1ccc(-c2ccc(OC3CCN(c4ccnc(P(C)(C)=O)n4)CC3)nc2)cc1)c1cc(Cl)c(OCCCl)c(C#N)c1 [Compound 103] | 247 | 18100 | 7.5 | 4 | 690 | –
9 | – | CC(C)(c1ccc(-c2ccc(OCc3ccnc(P(C)(C)=O)n3)c(F)c2)cc1)c1cc(Cl)c(OCCCl)c(C#N)c1 [Compound 117] | 304 | 15700 | 12.1 | 4 | 680 | –
10 | – | CC(C)(c1ccc(-c2ccc(OCc3ccnc(N4CC(P(C)(C)=O)C4)n3)cc2)cc1)c1cc(Cl)c(OCCCl)c(C#N)c1 [Compound 135] | 207 | 13600 | 5.6 | 6 | 230 | –
11 | – | CC(C)(c1ccc(-c2ccc(OCc3ccnc(C4CN(S(C)(=O)=O)C4)n3)cc2)cc1)c1cc(Cl)c(OCCCl)c(C#N)c1 [Compound 145] | 273 | 15800 | 15.3 | 4 | 600 | –
12 | – | CC(C)(c1ccc(-c2ccc(OCc3ccnc(N4CC(NS(C)(=O)=O)C4)n3)cc2)cc1)c1cc(Cl)c(OCCCl)c(C#N)c1 [Compound 161] | 376 | 11800 | 22.7 | 4 | 450 | –
13 | – | CC(C)(c1ccc(-c2ccc(OCc3ccnc(N4CC(CS(C)(=O)=O)C4)n3)cc2)cc1)c1cc(Cl)c(OCCCl)c(C#N)c1 [Compound 175] | 320 | 9200 | 21.1 | 4 | 490 | –
14 | – | CC(C)(c1ccc(-c2ccc(OCc3ccnc(N4CC(S(N)(=O)=O)C4)n3)cn2)cc1)c1cc(Cl)c(OCCCl)c(C#N)c1 [Compound 180] | 309 | 34600 | 5.17 | 3 | 800 | –
15 | – | CC(C)(c1ccc(-c2ccc(OCc3cccc(S(C)(=N)=O)n3)cc2)cc1)c1cc(Cl)c(OCCCl)c(C#N)c1 (stereo not drawn) [Compound 188] | 211 | 17300 | 7.5 | 3 | 1030 | –
16 | – | CC(C)(c1ccc(-c2ccc(OCc3ccnc(N4CC[C@H](S(C)(=O)=O)C4)n3)cc2)cc1)c1cc(Cl)c(OCCCl)c(C#N)c1 [Compound 202] | 202 | 8880 | 18.5 | 4 | 660 | –
17 | – | CC(C)(c1ccc(-c2ccc(OCc3ncc(P(C)(C)=O)s3)cc2)cc1)c1cc(Cl)c(OCCCl)c(C#N)c1 [Compound 221] | 464 | 19300 | 10.4 | 5 | 1040 | –
18 | – | COc1c(Cl)cc(C(C)(C)c2ccc(-c3ccc(OCc4ccnc(P(C)(C)=O)n4)cc3)cc2)cc1C#N [Compound 237] | 213 | 16200 | 4.2 | 3 | 860 | –
19 | – | CC(C)(c1ccc(-c2ccc(OCc3ccnc(N4CC5(CC(S(C)(=N)=O)C5)C4)n3)cc2)cc1)c1cc(Cl)c(OCCCl)c(C#N)c1 (stereo not drawn) [Compound 245] | 181 | 11000 | 7.3 | 5 | 990 | –

Row | IC50 ([2]; 168 h) [nM] | Compound | AUC(0-inf) ([1]; po, 30 mg/kg, PO-30mpk) [µg·h/mL] | Cmax ([1]; po, 30 mg/kg, PO-30mpk) [ng/mL] | half-life ([1]; po, 30 mg/kg, PO-30mpk) [h] | Tmax ([1]; po, 30 mg/kg, PO-30mpk) [h] | IC50 ([2]; 22Rv1, 168 h) [nM] | further results
20 | 490 | CC(C)(c1ccc(-c2ccc(OCC3CC(CN4CC5(CCS(=O)(=O)CC5)C4)C3)cc2)cc1)c1cc(Cl)c(OCCCl)c(C#N)c1 (stereo not drawn) [Compound 303] | – | – | – | – | – | –
21 | 810 | Cc1cc(OCc2ccc(-c3cnc(P(C)(C)=O)nc3)cc2)ccc1-c1ccc(C(C)(C)c2cc(Cl)c(OCCCl)c(C#N)c2)cc1 [Compound 304] | – | – | – | – | – | –
22 | 660 | CC(C)(c1ccc(-c2ccc(OCC3CC(CN4CC5(C4)CS(=N)(=O)C5)C3)cc2)cc1)c1cc(Cl)c(OCCCl)c(C#N)c1 (stereo not drawn) [Compound 307] | – | – | – | – | – | –
23 | 460 | CC(C)(c1ccc(-c2ccc(OCC3CCC(CN4CC5(C4)CS(=O)(=O)C5)CC3)cc2)cc1)c1cc(Cl)c(OCCCl)c(C#N)c1 (stereo not drawn) [Compound 309] | – | – | – | – | – | –
24 | 940 | CC(C)(c1ccc(-c2ccc(OCC3CN(C(=O)C4CC5(C4)CS(=O)(=O)C5)C3)cc2)cc1)c1cc(Cl)c(OCCCl)c(C#N)c1 [Compound 310] | – | – | – | – | – | –
25 | 540 | CC(C)(c1ccc(-c2ccc(OCC3CC(CN4CC5(CCS(=N)(=O)CC5)C4)C3)cc2)cc1)c1cc(Cl)c(OCCCl)c(C#N)c1 (stereo not drawn) [Compound 311] | – | – | – | – | – | –
26 | 890 | C[C@@H](Cl)COc1c(Cl)cc(C(C)(C)c2ccc(-c3ccc(OCc4ccnc(P(C)(C)=O)n4)cc3)cc2)cc1C#N [Compound 313] | – | – | – | – | – | –
27 | 1140 | CNC1CN(c2nccc(COc3ccc(-c4ccc(C(C)(C)c5cc(Cl)c(OCCCl)c(C#N)c5)cc4)cc3)n2)C1 [Compound 314] | – | – | – | – | – | –
28 | 680 | C[C@H](O)CN1CCS(=O)(=Nc2nccc(COc3ccc(-c4ccc(C(C)(C)c5cc(Cl)c(OCCCl)c(C#N)c5)cc4)cc3)n2)CC1 [Compound 316] | – | – | – | – | – | –
29 | 730 | CC(C)(c1ccc(-c2ccc(OCC3CCC(CN4CC5(C4)CS(=N)(=O)C5)CC3)cc2)cc1)c1cc(Cl)c(OCCCl)c(C#N)c1 (stereo not drawn) [Compound 318] | – | – | – | – | – | –
30 | 1200 | CC(C)(c1ccc(-c2ccc(OCC34CC(c5cnc(N6CC(S(C)(=O)=O)C6)nc5)(C3)C4)cc2)cc1)c1cc(Cl)c(OCCCl)c(C#N)c1 [Compound 321] | – | – | – | – | – | –
31 | 300 | CC(C)(c1ccc(-c2ccc(OCCN3CCS(=N)(=O)CC3)cc2)cc1)c1cc(Cl)c(OCCCl)c(C#N)c1 [Compound 324] | – | – | – | – | – | –
32 | 980 | CC(C)(c1ccc(-c2ccc(Oc3ccnc(P(C)(C)=O)n3)nc2)cc1)c1cc(Cl)c(OCCCl)c(C#N)c1 [Compound 326] | – | – | – | – | – | –
33 | 1110 | CC(C)(c1ccc(-c2ccc(OCC3CC4(C3)CS(=N)(=O)C4)cn2)cc1)c1cc(Cl)c(OCCCl)c(C#N)c1 (stereo not drawn) [Compound 328] | – | – | – | – | – | –
34 | 390 | CC(C)(c1ccc(-c2ccc(OCc3ccnc(N4CC5(CCS5(=N)=O)C4)n3)cc2)cc1)c1cc(Cl)c(OCCCl)c(C#N)c1 (stereo not drawn) [Compound 329] | – | – | – | – | – | –
35 | 280 | CC(C)(c1ccc(-c2ccc(OCCOc3nccc(P(C)(C)=O)n3)cc2)cc1)c1cc(Cl)c(OCCCl)c(C#N)c1 [Compound 330] | – | – | – | – | – | –
36 | 680 | CC(C)(c1ccc(-c2ccc(OCc3ccnc(N4CC(S(=N)(=O)C5CC5)C4)n3)cn2)cc1)c1cc(Cl)c(OCCCl)c(C#N)c1 (stereo not drawn) [Compound 336] | – | – | – | – | – | –
37 | 880 | CC(C)(c1ccc(-c2ccc(OCC3CC4(C3)CN(c3ccnc(P(C)(C)=O)n3)C4)cc2)cc1)c1cc(Cl)c(OCCCl)c(C#N)c1 [Compound 393] | – | – | – | – | – | –

Row | Compound | IC50 ([2]; 168 h) [nM] | AUC(0-inf) ([1]; po, 30 mg/kg, PO-30mpk) [µg·h/mL] | Cmax ([1]; po, 30 mg/kg, PO-30mpk) [ng/mL] | half-life ([1]; po, 30 mg/kg, PO-30mpk) [h] | Tmax ([1]; po, 30 mg/kg, PO-30mpk) [h] | IC50 ([2]; 22Rv1, 168 h) [nM] | further results
38 | CCCOc1c(Cl)cc(C(C)(C)c2ccc(-c3ccc(OCc4ccnc(P(C)(C)=O)n4)cc3)cc2)cc1C#N [Compound 191] | 410 | – | – | – | – | – | AUC(0-inf) ([1]; 30 mg/kg, PO-30mpk): 481 µg·h/mL; Cmax ([1]; 30 mg/kg, PO-30mpk): 25000 ng/mL; half-life ([1]; 30 mg/kg, PO-30mpk): 13.2 h; Tmax ([1]; 30 mg/kg, PO-30mpk): 4 h
